Source: patent US5380763A, “Topical composition for treating acne vulgaris” (Takasago International Corporation, priority 1992, dated 1995)
Converted amounts (≈) assume the structure as drawn. Like-named read-outs stand apart in the source and are kept apart here.

Key:
Propionibacterium acnes = experiment: Minimum inhibitory concentration (MIC) against Propionibacterium acnes (Test Example 1); format: cell-based, Propionibacterium acnes (ATCC 6919); settings: Cutibacterium acnes
Procedure: The minimum inhibitory concentration (MIC) of 1-pentadecanol against Propionibacterium acnes was determined as follows.
In 1 l of purified water was dissolved 59.0 g of a GAM (Gifu anaerobic medium) bouillon medium (Nissui Pharmaceutical Co., Ltd.) and 1-pentadecanol was added to the bouillon solution to give a concentration of 100 μg/ml. The mixture was stepwise diluted two times with the same medium, followed by sterilization.
A 10 ml aliquot of the mixture was put in a test tube and inoculated with 0.1 ml of the culture of Propionibacterium acnes (ATCC 6919) which had been precultured so as to give a cell density of 1×10^8 cells/ml. The system was static-cultured under anaerobic conditions for 48 hours, and the turbidity was measured at a wavelength of 660 nm to obtain MIC (μg/ml).
For comparison, MIC of 1-dodecanol and 1-hexadecanol, which have relatively strong antibacterial activity on several bacteria and are generally used as a base of cosmetics, against Propionibacterium acnes was obtained in the same manner.

Staphylococcus aureaus = settings: among 1-alkanols having 10 to 16 carbon atoms; Kato et al. (1980); cited from earlier work
[1] = GAM bouillon medium, anaerobic static culture 48 hours, turbidity at 660 nm, read-out: MIC

## CCCCCCCCCCCCCCCO [1-pentadecanol]
Propionibacterium acnes; 48 h
  MIC: 3.13 µg/mL (≈ 13.7 µM)

## CCCCCCCCCCCCCCCCO [1-hexadecanol]
Propionibacterium acnes; [1]
  MIC: > 200 µg/mL

## CCCCCCCCCCCCO [1-dodecanol]
Staphylococcus aureaus
  effectiveness on Staphylococcus aureaus: the most effective
Propionibacterium acnes; [1]
  MIC: 25 µg/mL (≈ 134 µM)
